Measurements from patent publication US10604524B2, “Pyrropyrimidine compounds as MNKs inhibitors” (LIFEARC, priority 2015, dated 2020).

Columns and labels:
Assay in all cases: Kinase selectivity screen
DDR2 = DDR2 (Homo sapiens, UniProt Q16832); settings: read-out: % Inhibition DDR2
SRPK1 = SRPK1 (Homo sapiens, UniProt Q96SB4); settings: read-out: % Inhibition SRPK1
ROCK1 = ROCK1 (Homo sapiens, UniProt Q13464); settings: read-out: % Inhibition ROCK1
MAP3K9 = MAP3K9 (Homo sapiens, UniProt P80192); settings: read-out: % Inhibition MAP3K9
ULK2 = ULK2 (Homo sapiens, UniProt Q8IYT8); settings: read-out: % Inhibition ULK2
NUAK1 = NUAK1 (Homo sapiens, UniProt O60285); settings: read-out: % Inhibition NUAK1
PIP4K2A = PIP4K2A (Homo sapiens, UniProt P48426); settings: read-out: % Inhibition PIP4K2A
MARK2 = MARK2 (Homo sapiens, UniProt Q7KZI7); settings: read-out: % Inhibition MARK2
PIK3CG = PIK3CG (Homo sapiens, UniProt P48736); settings: read-out: % Inhibition PIK3CG
PIK3CG, sequence (P48736 whole entry, species assumed): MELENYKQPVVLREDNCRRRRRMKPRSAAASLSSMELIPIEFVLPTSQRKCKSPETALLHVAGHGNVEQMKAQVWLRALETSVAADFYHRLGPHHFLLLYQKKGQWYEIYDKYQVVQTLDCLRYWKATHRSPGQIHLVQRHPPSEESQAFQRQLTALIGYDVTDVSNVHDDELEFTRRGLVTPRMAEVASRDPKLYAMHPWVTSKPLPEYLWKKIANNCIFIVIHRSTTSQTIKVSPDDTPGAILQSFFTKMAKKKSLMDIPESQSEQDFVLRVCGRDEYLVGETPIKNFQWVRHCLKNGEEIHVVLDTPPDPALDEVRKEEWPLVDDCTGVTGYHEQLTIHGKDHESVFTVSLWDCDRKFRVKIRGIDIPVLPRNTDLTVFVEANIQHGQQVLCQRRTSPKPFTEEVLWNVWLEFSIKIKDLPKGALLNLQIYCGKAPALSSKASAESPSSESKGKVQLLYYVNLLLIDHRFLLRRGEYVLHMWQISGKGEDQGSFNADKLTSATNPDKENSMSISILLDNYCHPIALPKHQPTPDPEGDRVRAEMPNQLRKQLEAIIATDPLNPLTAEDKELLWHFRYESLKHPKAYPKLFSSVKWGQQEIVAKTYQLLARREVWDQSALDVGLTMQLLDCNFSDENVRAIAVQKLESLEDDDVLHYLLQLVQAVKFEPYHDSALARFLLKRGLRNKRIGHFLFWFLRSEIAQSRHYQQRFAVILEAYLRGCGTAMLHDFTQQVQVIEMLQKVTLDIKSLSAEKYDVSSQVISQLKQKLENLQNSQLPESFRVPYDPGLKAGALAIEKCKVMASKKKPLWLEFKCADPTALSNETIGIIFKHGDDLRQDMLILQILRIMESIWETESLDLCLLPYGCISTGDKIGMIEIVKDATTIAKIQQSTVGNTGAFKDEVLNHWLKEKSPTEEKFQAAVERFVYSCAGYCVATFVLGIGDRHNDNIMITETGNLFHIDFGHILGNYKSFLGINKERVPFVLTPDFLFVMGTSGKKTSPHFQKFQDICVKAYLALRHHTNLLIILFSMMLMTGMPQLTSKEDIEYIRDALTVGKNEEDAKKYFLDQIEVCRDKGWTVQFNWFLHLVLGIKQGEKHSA

PDPK1 = PDPK1 (Homo sapiens, UniProt O15530); settings: read-out: % Inhibition PDPK1
PAK4 = PAK4 (Homo sapiens, UniProt O96013); settings: read-out: % Inhibition PAK4
EPHB4 = EPHB4 (Homo sapiens, UniProt P54760); settings: read-out: % Inhibition EPHB4
MARK1 = MARK1 (Homo sapiens, UniProt Q9P0L2); settings: read-out: % Inhibition MARK1
TGFBR1 = TGFBR1 (Homo sapiens, UniProt P36897); settings: read-out: % Inhibition TGFBR1
PIP5K1A = PIP5K1A (Homo sapiens, UniProt Q99755); settings: read-out: % Inhibition PIP5K1A
FES = FES (Homo sapiens, UniProt P07332); settings: read-out: % Inhibition FES
TYRO3 = TYRO3 (Homo sapiens, UniProt Q06418); settings: read-out: % Inhibition TYRO3
CDK1/CCNB1 = CDK1/CCNB1 (Homo sapiens, UniProt P06493); settings: read-out: % Inhibition CDK1/CCNB1
CDK1/CCNB1, sequence (P06493 whole entry, species assumed): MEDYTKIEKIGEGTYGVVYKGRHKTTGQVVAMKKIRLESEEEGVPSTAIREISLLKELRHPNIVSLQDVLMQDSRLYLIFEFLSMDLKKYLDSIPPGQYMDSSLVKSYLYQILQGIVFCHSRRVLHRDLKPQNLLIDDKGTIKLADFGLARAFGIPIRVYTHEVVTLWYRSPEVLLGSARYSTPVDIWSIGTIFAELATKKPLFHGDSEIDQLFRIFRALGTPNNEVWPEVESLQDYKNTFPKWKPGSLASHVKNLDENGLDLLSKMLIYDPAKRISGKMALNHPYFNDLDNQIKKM
CDK1/CCNB1, sequence (P14635 whole entry partner, species assumed): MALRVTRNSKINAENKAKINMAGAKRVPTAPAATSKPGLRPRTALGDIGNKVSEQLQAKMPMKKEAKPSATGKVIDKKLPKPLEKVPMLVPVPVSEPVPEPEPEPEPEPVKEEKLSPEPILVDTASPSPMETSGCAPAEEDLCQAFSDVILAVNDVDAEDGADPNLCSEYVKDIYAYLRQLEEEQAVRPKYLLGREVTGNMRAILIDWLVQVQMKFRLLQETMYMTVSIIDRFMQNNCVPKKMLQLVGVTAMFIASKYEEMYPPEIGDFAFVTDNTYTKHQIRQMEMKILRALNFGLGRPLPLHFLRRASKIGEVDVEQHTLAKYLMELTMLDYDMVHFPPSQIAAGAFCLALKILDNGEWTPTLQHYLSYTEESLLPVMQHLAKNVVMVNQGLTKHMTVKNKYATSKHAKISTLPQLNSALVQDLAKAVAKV

PIP5K1C = PIP5K1C (Homo sapiens, UniProt O60331); settings: read-out: % Inhibition PIP5K1C
AKT1 = AKT1 (Homo sapiens, UniProt P31749); settings: read-out: % Inhibition AKT1
AKT1, sequence (P31749 whole entry, species assumed): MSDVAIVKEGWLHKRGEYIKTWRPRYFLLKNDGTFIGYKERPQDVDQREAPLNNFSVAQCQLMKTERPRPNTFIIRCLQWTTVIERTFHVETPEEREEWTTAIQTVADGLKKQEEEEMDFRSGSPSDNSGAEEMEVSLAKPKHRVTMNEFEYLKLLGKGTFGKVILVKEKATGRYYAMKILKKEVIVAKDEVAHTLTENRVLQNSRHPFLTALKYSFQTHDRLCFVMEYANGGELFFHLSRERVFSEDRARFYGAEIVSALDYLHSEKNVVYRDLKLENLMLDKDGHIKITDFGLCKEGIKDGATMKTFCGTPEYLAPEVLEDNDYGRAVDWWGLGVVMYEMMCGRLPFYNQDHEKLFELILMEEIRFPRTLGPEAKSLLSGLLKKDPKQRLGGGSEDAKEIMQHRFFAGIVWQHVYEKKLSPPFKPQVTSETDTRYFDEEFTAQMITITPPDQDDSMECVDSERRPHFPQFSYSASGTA

PRKCA = PRKCA (Homo sapiens, UniProt P17252); settings: read-out: % Inhibition PRKCA
PAK2 = PAK2 (Homo sapiens, UniProt Q13177); settings: read-out: % Inhibition PAK2
ABL2 = ABL2 (Homo sapiens, UniProt P42684); settings: read-out: % Inhibition ABL2
NEK2 = NEK2 (Homo sapiens, UniProt P51955); settings: read-out: % Inhibition NEK2
BTK = BTK (Homo sapiens, UniProt Q06187); settings: read-out: % Inhibition BTK
ROCK2 = ROCK2 (Homo sapiens, UniProt O75116); settings: read-out: % Inhibition ROCK2
FLT1 = FLT1 (Homo sapiens, UniProt P17948); settings: read-out: % Inhibition FLT1
TBK1 = TBK1 (Homo sapiens, UniProt Q9UHD2); settings: read-out: % Inhibition TBK1
MINK1 = MINK1 (Homo sapiens, UniProt Q8N4C8); settings: read-out: % Inhibition MINK1
MINK1, sequence (Q8N4C8 whole entry, species assumed): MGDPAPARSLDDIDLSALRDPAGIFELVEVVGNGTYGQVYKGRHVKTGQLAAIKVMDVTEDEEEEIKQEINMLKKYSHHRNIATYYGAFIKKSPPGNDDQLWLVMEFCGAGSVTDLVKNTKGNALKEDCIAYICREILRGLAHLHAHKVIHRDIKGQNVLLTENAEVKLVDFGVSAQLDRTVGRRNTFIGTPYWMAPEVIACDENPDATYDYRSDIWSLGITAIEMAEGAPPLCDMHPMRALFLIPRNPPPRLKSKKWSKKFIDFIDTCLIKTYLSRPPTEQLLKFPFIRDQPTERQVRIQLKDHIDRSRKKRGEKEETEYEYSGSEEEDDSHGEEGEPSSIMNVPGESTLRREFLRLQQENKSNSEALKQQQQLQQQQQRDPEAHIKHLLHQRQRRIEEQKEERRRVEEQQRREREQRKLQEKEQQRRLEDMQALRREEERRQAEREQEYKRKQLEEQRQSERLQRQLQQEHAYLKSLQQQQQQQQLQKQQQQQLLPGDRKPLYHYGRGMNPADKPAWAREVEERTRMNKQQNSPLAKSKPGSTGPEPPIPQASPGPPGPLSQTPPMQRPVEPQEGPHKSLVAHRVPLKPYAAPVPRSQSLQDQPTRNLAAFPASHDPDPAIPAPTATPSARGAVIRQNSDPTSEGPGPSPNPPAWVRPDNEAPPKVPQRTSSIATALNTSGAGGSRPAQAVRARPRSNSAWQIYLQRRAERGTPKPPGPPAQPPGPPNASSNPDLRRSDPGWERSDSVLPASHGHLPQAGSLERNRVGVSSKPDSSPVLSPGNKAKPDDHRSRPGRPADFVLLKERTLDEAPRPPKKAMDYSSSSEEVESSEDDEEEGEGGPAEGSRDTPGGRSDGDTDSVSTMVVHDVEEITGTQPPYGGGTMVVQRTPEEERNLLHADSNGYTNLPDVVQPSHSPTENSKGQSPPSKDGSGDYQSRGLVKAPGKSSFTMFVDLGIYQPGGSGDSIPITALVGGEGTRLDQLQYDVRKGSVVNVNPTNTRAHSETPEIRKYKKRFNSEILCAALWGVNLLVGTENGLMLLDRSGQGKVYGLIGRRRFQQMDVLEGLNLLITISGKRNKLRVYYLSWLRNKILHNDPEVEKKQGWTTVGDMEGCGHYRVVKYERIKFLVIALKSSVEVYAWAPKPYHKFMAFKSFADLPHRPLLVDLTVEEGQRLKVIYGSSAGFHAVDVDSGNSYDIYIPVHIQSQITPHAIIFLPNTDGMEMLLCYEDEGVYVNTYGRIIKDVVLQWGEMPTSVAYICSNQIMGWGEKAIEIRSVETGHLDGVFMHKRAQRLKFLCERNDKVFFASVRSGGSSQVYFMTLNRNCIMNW

PIK3C2G = PIK3C2G (Homo sapiens, UniProt O75747); settings: read-out: % Inhibition PIK3C2G
PRKAA2 = PRKAA2 (Homo sapiens, UniProt P54646); settings: read-out: % Inhibition PRKAA2
PRKAA2, sequence (P54646 whole entry, species assumed): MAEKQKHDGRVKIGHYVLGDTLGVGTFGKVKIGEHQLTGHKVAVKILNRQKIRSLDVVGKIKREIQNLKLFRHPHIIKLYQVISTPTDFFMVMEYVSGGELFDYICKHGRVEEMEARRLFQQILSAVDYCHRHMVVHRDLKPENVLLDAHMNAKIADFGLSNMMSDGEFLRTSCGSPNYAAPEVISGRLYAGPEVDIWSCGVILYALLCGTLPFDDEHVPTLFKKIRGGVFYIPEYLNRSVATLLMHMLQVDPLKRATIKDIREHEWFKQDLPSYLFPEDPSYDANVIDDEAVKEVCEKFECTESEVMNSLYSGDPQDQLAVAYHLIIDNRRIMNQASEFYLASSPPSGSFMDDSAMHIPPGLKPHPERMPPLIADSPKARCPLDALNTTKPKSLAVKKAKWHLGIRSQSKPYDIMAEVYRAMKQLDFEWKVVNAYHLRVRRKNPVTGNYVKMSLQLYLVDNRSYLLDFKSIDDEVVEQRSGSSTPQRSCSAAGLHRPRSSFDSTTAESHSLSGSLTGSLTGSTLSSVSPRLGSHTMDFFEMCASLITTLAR
PRKAA2, sequence (Q9Y478 whole entry partner, species assumed): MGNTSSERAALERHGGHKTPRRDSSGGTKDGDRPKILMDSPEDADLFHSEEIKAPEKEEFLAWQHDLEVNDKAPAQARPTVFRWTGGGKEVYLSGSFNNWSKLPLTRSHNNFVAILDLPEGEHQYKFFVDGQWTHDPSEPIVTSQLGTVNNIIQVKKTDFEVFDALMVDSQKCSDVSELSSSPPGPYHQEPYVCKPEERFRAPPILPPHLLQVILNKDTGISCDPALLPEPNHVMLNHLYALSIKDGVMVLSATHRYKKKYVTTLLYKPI
PRKAA2, sequence (P54619 whole entry partner, species assumed): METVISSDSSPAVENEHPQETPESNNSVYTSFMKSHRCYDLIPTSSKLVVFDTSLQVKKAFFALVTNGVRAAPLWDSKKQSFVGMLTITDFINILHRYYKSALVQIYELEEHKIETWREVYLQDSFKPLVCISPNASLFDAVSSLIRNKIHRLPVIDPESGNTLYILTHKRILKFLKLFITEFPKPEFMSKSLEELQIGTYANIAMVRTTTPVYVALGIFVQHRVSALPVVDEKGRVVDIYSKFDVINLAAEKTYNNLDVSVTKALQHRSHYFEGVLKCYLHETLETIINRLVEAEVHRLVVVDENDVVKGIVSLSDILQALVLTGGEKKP

CaMK1 = CaMK1 (Homo sapiens, UniProt Q14012); settings: read-out: % Inhibition CaMK1
NTRK1 = NTRK1 (Homo sapiens, UniProt P04629); settings: read-out: % Inhibition NTRK1
ERBB4 = ERBB4 (Homo sapiens, UniProt Q15303); settings: read-out: % Inhibition ERBB4

Measured: inhibition at 1 µM

CC(C)Oc1cc(F)ccc1Nc1ncnc2cc(C(=O)NCCCN(C)C)n(C)c12 [Example 40, N-[3-(dimethylamino)propyl]-4-{[4-fluoro-2-(propan-2-yloxy)phenyl]amino}-5-methyl-5H-pyrrolo[3,2-d]pyrimidine-6-carboxamide]
5%: FES | PRKCA
6%: PIP5K1C
8%: FLT1
2%: DDR2 | EPHB4 | PIP5K1A
1%: PIK3CG
4%: PIK3C2G
7%: PIP4K2A
0%: all other assays above
